Test results: ChEMBL document CHEMBL1201862, “PubChem BioAssay data set” (2004)
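Five concentrations, 48 hours, 96-well plates. The concentration for 50% growth inhibition is given as GI50.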 The source made the active and inactive calls. Cut-off read from the data, not from the text of the source: active = GI50 up to about 1.1 µM and inactive = higher.

How the values were obtained:
Experiment in all cases: growth of human tumour cells (NCI), 48 h
[1] = tested on: HOP-92
[2] = tested on: HOP-62
[3] = tested on: OVCAR-4
[4] = tested on: MDA-MB-231
[5] = tested on: SF-268
[6] = tested on: A498
[7] = tested on: SN12C
[8] = tested on: EKVX
[9] = tested on: OVCAR-5
[10] = tested on: NCI-H23
[11] = tested on: SW-620
[12] = tested on: UO-31
[13] = tested on: M14
[14] = tested on: KM-20L2
[15] = tested on: HCC 2998
[16] = tested on: NCI-H522
[17] = tested on: SK-OV-3
[18] = tested on: HCT-15
[19] = tested on: T47D
[20] = tested on: OVCAR-3

Measured: GI50

Nc1nc(O)c2[nH]nnc2n1 [8-AZAGUANINE]
active: [1] 0.757 µM | [2] 0.326 µM | [5] 0.406 µM | [7] 0.334 µM | [11] 0.306 µM | [12] 0.366 µM | [13] 0.292 µM | [17] 1.04 µM
inactive: [3] 12.9 µM | [4] 5.82 µM | [6] 11.6 µM | [8] 11.4 µM | [9] 21.9 µM | [10] 25.1 µM | [14] 9.2 µM | [15] 19.2 µM | [16] 13.9 µM | [19] 3.44 µM | [20] 16 µM
24 µM: [18]
